Laboratory results: patent publication US20140259191A1, “FISH ANESTHETIC AND METHOD” (AQUA-MOR TECHNOLOGIES LTD., priority 2011, published 2014)

What was measured:
Ramirez fish = assay: Anesthesia of Ramirez fish by linalool or Ho Wood oil added to tank water; assay type: in vivo
Procedure: (§1) A one year old koi fish of body length 11 cm and which appeared to be healthy was placed in a 4 liter tank containing water at 25° C. and in which the water was circulated by means of aeration. A liquid a mixture containing 1 wt. % synthetic linalool (1 wt. % linalool, 5 wt. % 14R, 2 wt. % AF80 and 92 wt. % water) was added to the tank and manually mixed with the water so that the concentration of linalool in the water was 50 ppm. This was regarding as the starting time of the experiment; thereafter, observations were made regularly to determine the behavior of the fish in water. This continued until no response to external stimulation and complete loss of equilibrium were observed, at which point the fish was transferred to a recovery tank containing fresh water. The fish was placed near the air pump, and the time until the fish again swam and responded normally to external stimulation was recorded.
This experiment repeated the experiment of Example 1, using three goldfish (Carassius auratus auratus, average body length 12.5 cm) and five Ramirez fish (Mikrogeophagus ramirezi, body length 3.5-4 cm). All fishes appeared to be healthy. The goldfish tank held 4 liters of water and the tank holding the Ramirez fish one liter.
The experiment of example 9 was repeated, this time using five nine-month old Ramirez fish (M. ramirezi) in a one-liter tank. The respective weights were 0.8 g, 0.75 g, 0.7 g, 0.85 g and 0.75 g and the respective body lengths were 3.5 cm, 3.5 cm, 3 cm, 4 cm and 3 cm. The water temperature was 26° C. and the pH was 7. The fish became relaxed 2 minutes after addition of linalool, and after 5 minutes the fish were completely anesthetized. After 10 minutes the fish were removed to a recovery tank with fresh water. After 5 minutes in the recovery tank the fish had resumed normal behavior.
The experiment of Example 21 was repeated, using four one-year old Ramirez fish of respective body lengths 3, 2.5, 3 and 3.5 cm, and adding the Ho Wood oil to a linalool concentration of 50 ppm in the water. […] At 2.5 minutes the fish were removed to a recovery tank with clean water. After 7 minutes in the recovery tank they swam around and appeared to have resumed normal activity.
The experiment of Example 21 was repeated, using four 1-year old Ramirez fish of respective body lengths 3, 3.5, 3.5 and 4 cm, and adding the Ho Wood oil to a linalool concentration in the water of 75 ppm instead 50 ppm. […] At 1.5 minutes the fish were removed to a recovery tank with clean water. After 7 minutes in the recovery tank the fish swam around and appeared to have resumed normal activity.

goldfish = assay: Anesthesia of goldfish by linalool or Ho Wood oil added to tank water; assay type: in vivo, Carassius auratus auratus
Procedure: as §1
(§2) The experiment of Example 1 was repeated, using a one year old goldfish of 8.5 cm body length. […] At 9.5 minutes the fish was removed to a recovery tank with clean water. Thereafter it recovered slowly and after 35 minutes was swimming around in the tank and appeared to have resumed normal activity.
as §2, with “length, and adding the linalool formulation to a linalool concentration in the water of 75 ppm instead of 50 ppm. After 2 minutes of exposure to linalool the fish appeared to be in stress.” for “length.”, “20” for “9.5”, “activity. […]” for “activity.”
This example illustrates the effects of Linalool on Goldfish (cold water fish). The experiment was performed in a four liter tank with three 10-month old goldfish of respective weights 32 g, 30 g and 34 g and respective body lengths of 12.5 cm, 11.5 cm and 11 cm. The water temperature was 16° C. and the pH was 7. A formulation containing 1% Linalool was added to the water to a concentration of 50 ppm linalool in the water. The fish became relaxed 5 minutes after introduction of the linalool, and after 6 5 minutes there fish were completely anesthetized. After 20 minutes of exposure to linalool, the fish were removed to a recovery tank with fresh water. 15 minutes thereafter the fish had resumed normal behavior. […]
The experiment of Example 1 was repeated, using two one-year old goldfish of respective body lengths 8.5 and 7.5 cm and respective weights of 17 and 15 g, and adding the a natural source of linalool (Ho Wood oil) to a concentration of 75 ppm linalool instead of 50 ppm. […] At 4 minutes the fish were removed to a recovery tank with clean water. After 5 minutes in the recovery tank they swam around and appeared to have resumed normal activity.
The experiment of Example 21 was repeated, using two one-year old goldfish of respective body lengths 9 and 8 cm and respective weights 19 and 17.5 g, but adding Ho Wood oil to a linalool concentration of 50 ppm in the water. […] At 16.5 minutes the fish were removed to a recovery tank with clean water. After 4 minutes in the recovery tank they swam around and appeared to have resumed normal activity.

common carp = assay: Five-hour sedation of common carp, linalool versus 2-phenoxyethanol; assay type: in vivo; conditions: linalool 40 ppm; for Number of fish exhibiting loss of upright position: 26° C.
Procedure: 2-Phenoxyethanol (2-PE) is used to sedate fish in vaccinations procedures for relatively long periods of time (3 hours). 35 common carp were placed in each of two 60-liter tanks containing water at 26° C. Into one tank was added linalool (in a formulation as described in Example 28) to a concentration of 40 ppm; into the other tank was added 2-PE to a concentration of 200 ppm. Sedation of fish was determined by observation of loss of upright position, operculum movement and response to stimulus (handling). Total exposure time was five hours, at the end of which the fish were transferred 60-liter recovery tanks containing untreated water.

[1] = Example 12: five Ramirez fish 0.7-0.85 g, experiment of example 9 (50 ppm linalool), 26° C., pH 7
[2] = Example 4: goldfish 8.5 cm, 50 ppm linalool in water
[3] = Example 5: goldfish 8.5 cm, 75 ppm linalool in water
[4] = Example 6: goldfish 8 cm, 100 ppm linalool in water
[5] = Example 11: three goldfish 25-27.5 g, 100 ppm linalool

C=CC(C)(O)CCC=C(C)C (stereo not shown) [linalool]
mortality during a further three days of observation (Ramirez fish; Example 7: five Ramirez fish 3.5-4 cm, experiment of Example 1 repeated): no mortality occurred
time in recovery tank until normal behavior resumed (Ramirez fish; Example 12: Ramirez fish, 26° C., removed after 10 minutes): 5 min
time after addition of linalool until fish became relaxed (Ramirez fish; [1]): 2 min
time until fish completely anesthetized (Ramirez fish; [1]): 5 min
time of exposure until complete loss of equilibrium (goldfish; [2]): 6.5 min
time of exposure until no response to external stimulation (goldfish; [2]): 9 min
time of exposure until partial loss of equilibrium (goldfish; [2]): 5 min
time in recovery tank until normal activity resumed (goldfish; Example 4: goldfish 8.5 cm, 50 ppm linalool, removed to clean water at 9.5 minutes): 35 min
time of exposure until complete loss of equilibrium (goldfish; [3]): 5 min
time of exposure until no response to external stimulation (goldfish; [3]): 9 min
time of exposure until partial loss of equilibrium (goldfish; [3]): 2.5 min
time in recovery tank until normal activity resumed (goldfish; Example 5: goldfish 8.5 cm, 75 ppm linalool, removed to clean water at 20 minutes): 35 min
time of exposure until complete loss of equilibrium (goldfish; [4]): 2 min
time of exposure until no response to external stimulation (goldfish; [4]): 3.5 min
time of exposure until partial loss of equilibrium (goldfish; [4]): 1.5 min
time in recovery tank until normal activity resumed (goldfish; Example 6: goldfish 8 cm, 100 ppm linalool, removed to clean water at 4 minutes): 35 min
mortality during a further three days of observation (goldfish; Example 7: three goldfish, average 12.5 cm, experiment of Example 1 repeated): no mortality occurred
time in recovery tank until normal behavior resumed (goldfish; Example 9: goldfish, 50 ppm linalool, 16° C., removed after 20 minutes of exposure): 15 min
time after introduction of linalool until fish became relaxed (goldfish; Example 9: three goldfish 30-34 g, 50 ppm linalool, 16° C., pH 7): 5 min
time in recovery tank until normal behavior resumed (goldfish; Example 10: goldfish, 75 ppm linalool, 16° C., removed at 20 minutes): 35 min
time until fish completely anesthetized (goldfish; Example 10: three goldfish 25-27 g, 75 ppm linalool, 16° C., pH 7): 5 min
time in recovery tank until normal behavior resumed (goldfish; Example 11: goldfish, 100 ppm linalool, removed at 4 minutes): 20 min
time after addition of linalool until fish became relaxed (goldfish; [5]): 1.5 min
time until fish completely anesthetized (goldfish; [5]): 2 min
Number of fish exhibiting loss of upright position (common carp; 35 common carp per tank, 2-PE 200 ppm, time 10:30 (start), aeration): 0
Number of fish exhibiting loss of upright position (common carp; 35 common carp per tank, 2-PE 200 ppm, time 11:00 (start 10:30), no aeration): 2
Number of fish exhibiting loss of upright position (common carp; 35 common carp per tank, 2-PE 200 ppm, time 11:40 (start 10:30), no aeration): 9
Number of fish exhibiting loss of upright position (common carp; 35 common carp per tank, 2-PE 200 ppm, time 12:35 (start 10:30), no aeration): 16
Number of fish exhibiting loss of upright position (common carp; 35 common carp per tank, 2-PE 200 ppm, time 13:35 (start 10:30), no aeration): 17
Number of fish exhibiting loss of upright position (common carp; 35 common carp per tank, 2-PE 200 ppm, time 14:30 (start 10:30), aeration): 20
Number of fish exhibiting loss of upright position (common carp; 35 common carp per tank, 2-PE 200 ppm, time 15:30 (start 10:30), aeration): 16
survival at transfer to recovery tank (common carp; 35 common carp per tank, 2-PE 200 ppm, after five hours exposure): All alive
reflex response over the 5 hours of exposure (common carp; common carp, 2-PE 200 ppm): reduced from the beginning of the trial and remained at the same level of reflex throughout the 5 hours of exposure
sedative effect between 3 and 5 hours of exposure (common carp; common carp, 2-PE 200 ppm): maintained
recovery after placement in a recovery tank (common carp; common carp, 2-PE 200 ppm, after five hours exposure): recovered quickly in few minutes and did not show signs of stress
response to external stimulation during the first 3 hours (common carp; common carp, 2-PE 200 ppm, sedation levels enabled handling): did not respond to external stimulation
loss of reflex reactivity (common carp; common carp, in contrast to 2-PE): did not completely lose reflex reactivity
